Key:
Piezo1 (Homo sapiens) [1] = assay: Antagonist activity at Yoda1-activated human Piezo1 in HUVECs assessed as inhibition of calcium influx by calcium fluorescence assay
Piezo1 (Homo sapiens) [2] = assay: Inhibition of human Piezo1 assessed as intracellular calcium influx measured for 30 mins by Fluo-4 AM dye based fluorescence analysis
[3] = target: Amyloid-beta precursor protein (Homo sapiens, UniProt P05067); assay: Inhibition of amyloid beta (1 to 42) (unknown origin) aggregation incubated for 24 hrs by ThT assay
Sequence of Amyloid-beta precursor protein (P05067 whole entry): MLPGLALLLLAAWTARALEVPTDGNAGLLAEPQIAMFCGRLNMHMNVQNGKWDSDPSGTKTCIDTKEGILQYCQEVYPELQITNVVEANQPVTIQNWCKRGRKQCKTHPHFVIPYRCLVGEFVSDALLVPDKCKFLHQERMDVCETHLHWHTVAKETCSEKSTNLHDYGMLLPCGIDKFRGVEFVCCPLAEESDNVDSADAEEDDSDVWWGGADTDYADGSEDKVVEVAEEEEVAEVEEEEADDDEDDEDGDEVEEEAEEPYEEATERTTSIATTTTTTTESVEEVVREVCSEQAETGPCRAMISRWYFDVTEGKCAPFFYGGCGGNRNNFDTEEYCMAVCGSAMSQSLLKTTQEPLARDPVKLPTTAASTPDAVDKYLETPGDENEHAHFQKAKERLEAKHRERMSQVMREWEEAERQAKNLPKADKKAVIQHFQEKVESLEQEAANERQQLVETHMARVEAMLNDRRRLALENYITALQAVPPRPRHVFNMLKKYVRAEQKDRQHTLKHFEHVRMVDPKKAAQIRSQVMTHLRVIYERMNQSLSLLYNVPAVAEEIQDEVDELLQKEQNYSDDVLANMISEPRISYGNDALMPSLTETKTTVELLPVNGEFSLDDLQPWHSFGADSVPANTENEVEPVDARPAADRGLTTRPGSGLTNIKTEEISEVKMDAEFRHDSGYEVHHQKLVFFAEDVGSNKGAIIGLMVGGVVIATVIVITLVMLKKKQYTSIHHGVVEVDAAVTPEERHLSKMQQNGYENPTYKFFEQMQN

Piezo1 (Homo sapiens) [4] = assay: Antagonist activity at human Piezo1

## O=C(/C=C/c1ccc(O)c2c1[C@H](C(=O)O[C@H](Cc1ccc(O)c(O)c1)C(=O)O)[C@@H](c1ccc(O)c(O)c1)O2)O[C@H](Cc1ccc(O)c(O)c1)C(=O)O
Piezo1 (Homo sapiens) [1]
  IC50: 1370 nM

## C[C@@H]1O[C@@H](O[C@H]2[C@H](OC(=O)[C@]34CCC(C)(C)C[C@H]3C3=CC[C@@H]5[C@@]6(C)C[C@H](O)[C@@H]7O[C@@H]8O[C@H](CO)[C@@H](O)[C@H](O)[C@H]8O[C@@H]8OC[C@H](O)[C@H](O)[C@H]8OC(=O)CC(C)(O)CC(=O)OC[C@@]7(C)[C@@H]6CC[C@@]5(C)[C@]3(C)CC4)OC[C@H](O)[C@@H]2O)[C@H](O)[C@H](O[C@@H]2OC[C@@H](O)[C@H](O)[C@H]2O)[C@H]1O (some centres undefined)
Piezo1 (Homo sapiens) [2]
  IC50: 1110 nM

## CCCCCCCCCCCCCCCCC(=O)O [HEPTADECANOIC ACID]
[3]
  IC50: 28300 nM

## Clc1cccc(Cl)c1CSc1nnc(-c2ccc[nH]2)o1
Piezo1 (Homo sapiens) [4]
  IC50: 1300 nM
